Assay results from patent USRE46372E1, “Method for treating hearing loss” (The Regents of the University of Michigan, priority 2006, dated 2017).
“Also recorded” adds a separate entry of the source.

How the values were obtained:
[1] = test system: guinea pigs; experiment: Noise-induced hearing loss in guinea pigs, ABR threshold shift; assay type: in vivo, guinea pig; settings: for permanent hearing loss 10 days post noise (FIG. 1), protection in words: Trolox 100 mg/kg once daily or 50 mg/kg twice daily, betahistine 30 mg/kg once daily or 18 mg/kg, versus saline control; for threshold shift, as averaged across all frequencies: ABR at 4, 8, 16 kHz, 10 days after 120 dB SPL Octave Band Noise centered at 4 kHz for 5 h, saline control about 45
[2] = in words; cited from earlier work
[3] = in words; cited from earlier work; remark: listed apart in the source
[4] = test system: guinea pigs; experiment: Missing hair cells (hair cell counts, cytocochleograms) after noise exposure in guinea pigs; settings: after 120 dB SPL noise for 5 h, in words
Protocol: After ABR testing, the guinea pigs are deeply anesthetized and decapitated. Temporal bones are quickly removed, dissected open and fixed with 4% paraformaldehyde. The following day, an otic capsule, lateral wall, and tectorial membrane are removed, and a bony modiolus is carefully detached. Organ of Corti tissue, attached to the modiolus, is permeabilized with 0.3% Triton-X and incubated with rhodamine phalloidin diluted 1:100 in phosphate buffered saline (30 min). After washing the tissues, individual turns from the organ of Corti are dissected, mounted on microscope slides, and examined and photographed using a Leica DMRB epiflourescence microscope. Hair cell counts are conducted, and cytocochleograms are prepared as known in the art.
Guinea pigs are treated with other compositions in order to compare the efficacy of the composition of the present disclosure with the other compositions. […] The guinea pigs are subjected to the same ABR testing, and the components of the ear are dissected, as described above in the Example to provide information on threshold shift and hair cell loss.
Eight groups of guinea pigs (where the number of guinea pigs ranges from 5 guinea pigs to 10 guinea pigs per group) are respectively treated with other compositions to compare the efficacy of the “ACEMg” composition of the present disclosure with the other compositions. […] The eight groups of guinea pigs are exposed to the same ABR testing, and the components of the ear are dissected as previously described in the Example to provide information on threshold shift and outer hair cell loss.

[5] = test system: guinea pigs; experiment: Gentamicin-induced hair cell loss in guinea pigs (quantitative sensory hair cell assessment); assay type: in vivo, guinea pig
Protocol: In addition, outer hair cell loss and inner hair cell loss is measured both in the whole cochlea and in a trauma region of the cochlea. After treatment according to the method of the present disclosure, outer hair cell loss in the whole cochlea is less than 10%, and inner hair cell loss in the whole cochlea is less than 5%. Outer cell hair loss in the trauma region is less than 20%, while inner hair cell loss in the trauma region is less than 10%. […] To obtain those results, the composition is orally administered to guinea pigs for 10 to 16 days prior to first administration of the antibiotic, and the composition and antibiotic are administered again each day for forty days. The guinea pigs are then euthanized and the hair cells counted. Conversely, when the antibiotic is administered for forty days without administering the composition described herein in conjunction with the antibiotic, outer hair cell loss approaches 80%, while inner hair cell loss is about 8%.
The method of treating side effects of antibiotic treatment with the composition of the present disclosure is again performed on guinea pigs (normal hearing, male, pigmented). Six guinea pigs are subject to antibiotic administration and treatment with the composition of the present disclosure. The guinea pigs were fed with a chow containing the composition including beta-carotene, vitamin C, vitamin E, and magnesium in the amounts shown in Table 3 for 10 days prior to administration of a first dosage of gentamicin antibiotic, and were fed the same chow every day for 41 days. […] Fourteen days following cessation of antibiotic treatment, the guinea pigs were euthanized, left cochleae harvested, and quantitative sensory hair cell assessments were performed. […]
Six guinea pigs are subject to antibiotic administration in the absence of treatment with the composition of the present disclosure. […] Fourteen days following cessation of antibiotic treatment, the guinea pigs were euthanized, left cochleae harvested, and quantitative sensory hair cell assessments were performed.

[6] = antibiotic administered without the composition

Compound | permanent hearing loss 10 days post noise (FIG. 1), protection in words [1] | threshold shift, as averaged across all frequencies [1] | sensory cell death by hair cell counts, whole cochlea and trauma region, compared to the saline control [4] | other results
Cc1c(C)c2c(c(C)c1O)CCC(C)(C(=O)O)O2 (stereo not drawn) | less permanent hearing loss than control animals | – | – | –
Oc1ncnc2[nH]ncc12 [allopurinol] | – | – | – | reducing noise-induced hearing loss [2]: effective; reducing gentamicin-induced ototoxicity [3]: ineffective
CNCCc1ccccn1 [betahistine] | approximately the same amount of protection as those treated with vitamin E; also recorded: does not exhibit an additive effect | – | – | –
CN(CC(=O)O)C(=N)N [creatine] | – | about 34 decibels | reduced sensory cell death | –
O=S(=O)([O-])[O-].[Mg+2] [magnesium, magnesium sulfate] | – | about 41 decibels | reduced sensory cell death | sensory cell death by hair cell counts, whole cochlea and trauma region, compared to the saline control ([4]; listed as Mg): significantly reduced sensory cell death
gentamicin | – | – | – | inner hair cell loss [5, 6]: about 8%; outer hair cell loss [5, 6]: ~80%; ototoxic effect on hair cells ([5]; gentamicin 140 mg/kg s.c. once a day for 16 days, no composition, in words): dramatic cell death of outer hair cells
